Reference: ChEMBL document CHEMBL1201862, “PubChem BioAssay data set” (2004)
The source made the active and inactive calls.

Assays:
Mu-type opioid receptor = Mu-type opioid receptor (Homo sapiens, UniProt P35372); format: functional, cell-based;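 also: U2OS cells with beta-arrestin recruitment to OPRM1 by beta-gal complementation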
[1] = molecular target: 5-hydroxytryptamine receptor 2A (Mus musculus, UniProt P35363); format: functional, cell-based;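 also: CHO-K1 cells with tagged receptor and beta-arrestin; agonist potency measured as compound-induced activation of the receptor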
Sequence of 5-hydroxytryptamine receptor 2A (P35363 whole entry): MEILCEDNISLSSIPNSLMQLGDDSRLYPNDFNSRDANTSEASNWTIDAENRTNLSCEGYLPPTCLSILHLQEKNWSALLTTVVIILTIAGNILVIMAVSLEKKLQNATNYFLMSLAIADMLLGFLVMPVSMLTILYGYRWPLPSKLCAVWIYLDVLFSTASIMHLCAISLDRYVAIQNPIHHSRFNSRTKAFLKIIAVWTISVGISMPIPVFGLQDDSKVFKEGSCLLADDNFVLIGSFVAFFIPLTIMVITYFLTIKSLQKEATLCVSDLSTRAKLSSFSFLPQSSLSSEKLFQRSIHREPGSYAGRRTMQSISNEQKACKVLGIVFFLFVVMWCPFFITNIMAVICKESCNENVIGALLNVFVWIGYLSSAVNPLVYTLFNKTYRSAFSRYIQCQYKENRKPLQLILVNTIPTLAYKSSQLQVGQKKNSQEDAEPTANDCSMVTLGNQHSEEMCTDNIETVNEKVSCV

[2] = viability of uninfected HEp-2 cells – cell-based, HTS, cytotoxicity control for RSV inhibitor project, dose response (AID 2410); format: functional; conditions: human respiratory syncytial virus
[3] = microbe, parasite or virus in culture; format: functional; conditions: Mycobacterium tuberculosis
[4] = viability loss in HeLa cells – cytotoxicity control for MgcRacGAP inhibitor project, dose response (AID 624300); format: functional
[5] = molecular target: T1, Rac GTPase-activating protein 1 (Homo sapiens, UniProt Q9H0H5); assay: blockers of MgcRacGAP-driven Rac1 GTP hydrolysis – biochemical, ADP Hunter fluorescence, primary and confirmatory, confirmation (AID 624330); format: functional
T1 sequence (Q9H0H5 whole entry): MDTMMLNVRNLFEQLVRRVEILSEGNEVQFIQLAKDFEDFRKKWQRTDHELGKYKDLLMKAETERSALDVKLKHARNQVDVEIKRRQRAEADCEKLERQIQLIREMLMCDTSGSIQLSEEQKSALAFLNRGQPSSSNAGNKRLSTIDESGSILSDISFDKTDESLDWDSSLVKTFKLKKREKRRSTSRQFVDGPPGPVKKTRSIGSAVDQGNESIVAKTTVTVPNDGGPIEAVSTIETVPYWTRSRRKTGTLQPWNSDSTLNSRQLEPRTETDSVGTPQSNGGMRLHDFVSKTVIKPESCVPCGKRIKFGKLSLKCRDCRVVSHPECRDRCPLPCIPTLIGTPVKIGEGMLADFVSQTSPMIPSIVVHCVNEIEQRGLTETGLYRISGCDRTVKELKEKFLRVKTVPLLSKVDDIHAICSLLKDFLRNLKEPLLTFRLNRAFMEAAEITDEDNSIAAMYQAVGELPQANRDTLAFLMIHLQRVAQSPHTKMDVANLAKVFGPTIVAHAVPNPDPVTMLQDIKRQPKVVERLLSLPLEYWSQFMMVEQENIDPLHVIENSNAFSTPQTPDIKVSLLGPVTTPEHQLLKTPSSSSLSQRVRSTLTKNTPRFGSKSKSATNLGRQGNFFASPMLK

[6] = reduction of Shn3 3'UTR-driven luciferase in osteoblasts – cell-based, Clone20 osteoblasts, firefly luciferase, cherry-picked, dose response (AID 624132); format: functional;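 also: firefly luciferase luminescence from reporter carrying the Shn3 3'UTR in osteoblasts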
[7] = loss of viability in HepG2 cells – cell-based, CellTiter-Glo, cherry-picked, cytotoxicity control for Shn3 inhibitor project, dose response (AID 624134); format: functional
[8] = non-specific 3'UTR reporter inhibition in Clone20-Shn3RL – cell-based, Renilla luciferase, cherry-picked, counter-screen for Shn3 inhibitor project, dose response (AID 624133); format: functional
[9] = blockers of HIV-1 envelope-mediated cell-cell fusion – cherry-pick, dose response (AID 652057); format: functional, cell-based
[10] = viability loss in CEM21 cells – cell-based, CellTiter-Glo luminescence, cherry-picked, cytotoxicity control for viral fusion inhibitor project, dose response (AID 652042); format: functional;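 also: potency for signal decrease meaning cytotoxicity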
[11] = off-target signal loss in HeLa-CEM21 co-culture – HeLa F-luc CTL cells, cherry-picked, counter-screen for HIV-1 Env fusion inhibitor project, dose response (AID 652040); format: functional, cell-based;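 also: potency for signal decrease marking cytotoxic or nonspecific inhibition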
[12] = HIV-1 AD8 envelope cell-cell fusion blockers – cherry-pick, dose response (AID 652062); format: functional, cell-based;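 also: luciferase signal from cell-cell fusion driven by HIV-1 clade B AD8 Env; potency is for inhibitors of fusion seen as a drop in luminescence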
[13] = molecular target: T2, Replicative DNA helicase DnaB (Mycobacterium tuberculosis, UniProt P9WMR3); assay: DnaB intein splicing inhibitors, dose response, biochemical, cell-free fluorescence (AID 449749); format: functional
T2 sequence (P9WMR3 whole entry): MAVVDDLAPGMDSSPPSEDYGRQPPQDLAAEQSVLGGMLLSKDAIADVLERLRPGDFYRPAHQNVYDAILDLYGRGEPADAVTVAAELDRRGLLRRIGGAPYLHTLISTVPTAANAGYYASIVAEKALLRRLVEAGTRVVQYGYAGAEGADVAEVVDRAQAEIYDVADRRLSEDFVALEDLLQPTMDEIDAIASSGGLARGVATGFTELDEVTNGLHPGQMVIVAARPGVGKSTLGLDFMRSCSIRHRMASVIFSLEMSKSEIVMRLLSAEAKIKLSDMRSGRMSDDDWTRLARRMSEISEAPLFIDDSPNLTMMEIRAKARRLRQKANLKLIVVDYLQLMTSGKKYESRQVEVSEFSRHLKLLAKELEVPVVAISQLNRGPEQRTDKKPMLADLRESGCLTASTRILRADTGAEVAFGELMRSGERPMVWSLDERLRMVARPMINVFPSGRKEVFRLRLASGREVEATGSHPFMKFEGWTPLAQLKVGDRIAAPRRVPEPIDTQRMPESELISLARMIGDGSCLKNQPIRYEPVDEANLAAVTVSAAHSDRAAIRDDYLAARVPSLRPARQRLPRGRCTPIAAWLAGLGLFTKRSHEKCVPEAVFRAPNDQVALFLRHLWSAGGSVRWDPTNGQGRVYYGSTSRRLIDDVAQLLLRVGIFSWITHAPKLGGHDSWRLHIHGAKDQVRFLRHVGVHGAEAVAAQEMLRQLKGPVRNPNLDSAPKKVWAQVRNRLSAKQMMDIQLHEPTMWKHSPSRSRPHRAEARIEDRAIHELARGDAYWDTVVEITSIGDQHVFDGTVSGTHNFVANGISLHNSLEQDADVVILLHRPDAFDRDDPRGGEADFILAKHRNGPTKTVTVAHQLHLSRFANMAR

[14] = molecular target: T3, Apoptotic protease-activating factor 1 (Homo sapiens, UniProt O14727); format: functional
T3 sequence (O14727 whole entry): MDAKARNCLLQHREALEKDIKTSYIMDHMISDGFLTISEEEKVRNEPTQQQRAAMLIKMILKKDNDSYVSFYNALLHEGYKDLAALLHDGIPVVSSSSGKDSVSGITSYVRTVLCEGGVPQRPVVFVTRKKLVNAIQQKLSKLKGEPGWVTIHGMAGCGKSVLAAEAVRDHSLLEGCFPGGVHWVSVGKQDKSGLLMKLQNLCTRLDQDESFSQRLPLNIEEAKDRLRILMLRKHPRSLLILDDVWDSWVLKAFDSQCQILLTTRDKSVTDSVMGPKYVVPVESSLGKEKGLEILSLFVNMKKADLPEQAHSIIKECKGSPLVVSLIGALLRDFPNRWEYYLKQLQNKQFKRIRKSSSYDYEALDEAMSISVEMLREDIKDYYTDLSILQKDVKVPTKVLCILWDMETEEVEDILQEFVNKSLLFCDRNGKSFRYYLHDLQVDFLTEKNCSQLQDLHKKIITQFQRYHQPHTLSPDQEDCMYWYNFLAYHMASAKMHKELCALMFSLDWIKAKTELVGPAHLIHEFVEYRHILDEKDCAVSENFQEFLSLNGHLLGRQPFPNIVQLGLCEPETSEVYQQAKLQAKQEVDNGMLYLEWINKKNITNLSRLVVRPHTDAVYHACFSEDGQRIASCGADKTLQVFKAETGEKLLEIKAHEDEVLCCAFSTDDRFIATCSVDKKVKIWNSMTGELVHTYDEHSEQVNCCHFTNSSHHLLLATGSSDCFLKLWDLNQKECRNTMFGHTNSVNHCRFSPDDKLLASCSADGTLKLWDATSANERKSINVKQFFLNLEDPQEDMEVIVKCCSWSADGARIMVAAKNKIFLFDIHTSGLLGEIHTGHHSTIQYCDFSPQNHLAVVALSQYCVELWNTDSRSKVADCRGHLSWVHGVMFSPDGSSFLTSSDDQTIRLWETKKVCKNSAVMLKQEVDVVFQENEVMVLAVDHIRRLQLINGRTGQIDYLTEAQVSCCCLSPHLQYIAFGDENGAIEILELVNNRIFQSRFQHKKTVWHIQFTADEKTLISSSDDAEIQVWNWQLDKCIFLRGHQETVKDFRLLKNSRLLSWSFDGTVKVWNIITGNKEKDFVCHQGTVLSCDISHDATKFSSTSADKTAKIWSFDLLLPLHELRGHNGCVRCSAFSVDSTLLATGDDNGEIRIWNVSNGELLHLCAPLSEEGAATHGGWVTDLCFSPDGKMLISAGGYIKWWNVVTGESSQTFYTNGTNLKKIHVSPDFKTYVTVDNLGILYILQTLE

Protein RecA = molecular target: T4, Protein RecA (Mycobacterium tuberculosis, UniProt P9WHJ3); assay: Fluorescence Cell-Free Homogeneous Dose Retest to Identify Inhibitors of RecA-Intein Splicing Activity. [Related pubchem assays (depositor defined):AID2097, AID2223, AID489010, AID492950]; format: functional
T4 sequence (P9WHJ3 whole entry): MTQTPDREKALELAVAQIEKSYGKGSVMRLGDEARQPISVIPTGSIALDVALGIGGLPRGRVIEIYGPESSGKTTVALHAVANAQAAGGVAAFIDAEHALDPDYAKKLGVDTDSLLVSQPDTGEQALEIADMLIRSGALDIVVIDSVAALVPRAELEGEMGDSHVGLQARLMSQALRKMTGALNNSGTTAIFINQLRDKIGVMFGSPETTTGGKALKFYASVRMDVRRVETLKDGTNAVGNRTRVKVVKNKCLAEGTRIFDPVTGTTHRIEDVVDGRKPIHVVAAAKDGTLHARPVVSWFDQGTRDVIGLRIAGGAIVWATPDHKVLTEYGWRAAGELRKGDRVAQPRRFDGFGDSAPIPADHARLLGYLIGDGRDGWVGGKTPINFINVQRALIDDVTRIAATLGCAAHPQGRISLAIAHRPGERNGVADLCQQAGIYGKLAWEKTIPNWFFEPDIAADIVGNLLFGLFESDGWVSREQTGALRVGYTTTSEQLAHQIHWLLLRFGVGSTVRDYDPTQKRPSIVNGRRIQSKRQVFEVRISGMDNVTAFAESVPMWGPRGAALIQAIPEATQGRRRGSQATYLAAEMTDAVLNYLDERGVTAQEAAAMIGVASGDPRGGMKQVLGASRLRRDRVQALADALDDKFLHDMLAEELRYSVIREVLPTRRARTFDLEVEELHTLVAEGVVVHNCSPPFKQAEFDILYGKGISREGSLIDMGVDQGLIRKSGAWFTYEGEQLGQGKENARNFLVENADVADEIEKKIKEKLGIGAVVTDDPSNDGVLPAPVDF

Genome polyprotein = Genome polyprotein (dengue virus type 2, UniProt P29990); assay: flavivirus cap methylation enzyme inhibition – biochemical, confirmation dose response, primary screen (AID 588689); format: functional
Sequence of Genome polyprotein (P29990 2492-3391 limits assumed): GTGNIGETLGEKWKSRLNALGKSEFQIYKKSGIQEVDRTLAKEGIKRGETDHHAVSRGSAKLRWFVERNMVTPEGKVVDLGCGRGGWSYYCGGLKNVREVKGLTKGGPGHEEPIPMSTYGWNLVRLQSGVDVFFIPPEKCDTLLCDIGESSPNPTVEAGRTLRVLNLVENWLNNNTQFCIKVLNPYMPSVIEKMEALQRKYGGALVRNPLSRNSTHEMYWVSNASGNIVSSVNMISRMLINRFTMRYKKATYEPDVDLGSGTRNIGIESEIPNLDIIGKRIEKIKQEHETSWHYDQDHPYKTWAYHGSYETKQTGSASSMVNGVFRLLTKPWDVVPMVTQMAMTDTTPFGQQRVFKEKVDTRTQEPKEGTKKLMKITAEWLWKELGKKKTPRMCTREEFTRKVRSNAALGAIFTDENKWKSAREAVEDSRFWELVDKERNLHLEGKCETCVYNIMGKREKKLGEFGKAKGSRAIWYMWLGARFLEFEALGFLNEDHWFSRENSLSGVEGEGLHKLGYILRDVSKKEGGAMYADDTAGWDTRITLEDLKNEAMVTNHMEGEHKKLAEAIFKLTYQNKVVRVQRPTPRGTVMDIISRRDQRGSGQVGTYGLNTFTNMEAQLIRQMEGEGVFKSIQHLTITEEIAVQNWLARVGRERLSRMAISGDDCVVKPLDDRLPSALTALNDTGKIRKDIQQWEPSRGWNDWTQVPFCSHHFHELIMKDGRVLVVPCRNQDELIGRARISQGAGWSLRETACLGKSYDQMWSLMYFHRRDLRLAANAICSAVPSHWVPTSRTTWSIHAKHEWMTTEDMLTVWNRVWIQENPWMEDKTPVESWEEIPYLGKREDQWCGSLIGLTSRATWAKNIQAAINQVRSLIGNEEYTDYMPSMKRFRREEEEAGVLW

[15] = molecular target: T5, Sentrin-specific protease 8 (Homo sapiens, UniProt Q96LD8); format: functional
T5 sequence (Q96LD8 whole entry): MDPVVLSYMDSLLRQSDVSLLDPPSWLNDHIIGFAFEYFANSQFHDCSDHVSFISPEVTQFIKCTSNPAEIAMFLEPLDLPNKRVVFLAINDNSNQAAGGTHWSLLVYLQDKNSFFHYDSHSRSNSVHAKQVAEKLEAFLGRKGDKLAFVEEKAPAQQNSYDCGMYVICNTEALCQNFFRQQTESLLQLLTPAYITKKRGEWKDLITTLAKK

[16] = molecular target: T5, Sentrin-specific protease 8; format: functional; remark: listed apart in the source

Sequence of Mu-type opioid receptor (P35372 whole entry): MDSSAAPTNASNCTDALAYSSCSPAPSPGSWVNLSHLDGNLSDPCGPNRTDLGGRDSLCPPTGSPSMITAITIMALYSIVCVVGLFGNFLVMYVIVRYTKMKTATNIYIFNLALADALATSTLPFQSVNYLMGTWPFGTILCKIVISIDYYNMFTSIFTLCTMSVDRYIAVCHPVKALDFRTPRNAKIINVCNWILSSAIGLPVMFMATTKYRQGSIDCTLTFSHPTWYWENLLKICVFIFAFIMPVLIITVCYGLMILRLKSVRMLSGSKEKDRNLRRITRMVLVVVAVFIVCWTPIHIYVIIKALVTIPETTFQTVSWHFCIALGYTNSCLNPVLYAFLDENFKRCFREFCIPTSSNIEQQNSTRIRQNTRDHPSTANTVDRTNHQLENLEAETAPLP

With C=CCN1CCc2c(cc(O)c(O)c2Br)[C@@H](c2ccccc2)C1 the EC50 (Mu-type opioid receptor) was 92.5 µM (inactive) and the EC50 [1] was 0.0982 µM (active).
With CCN(CCNCC(O)COc1ccccc1C(C)C)c1cccc(C)c1 (stereo not drawn) the CC50 [2] was 20 µM (active), the CC50 [3] was 14.2 µM (active) and the CC50 [4] was 36.1 µM (active). The IC50 [5] was 66.7 µM (active).
With c1nc2nc[nH]c(N3CCN(Cc4ccc5c(c4)OCO5)CC3)c-2n1 the EC50 (Mu-type opioid receptor) was 92.5 µM (inactive) and the EC50 [1] was 0.59 µM (active).
In the case of FC(F)(F)c1nc(-c2cccs2)ncc1-c1nnnn1-c1ccc(Cl)cc1, the AC50 [6] is reported as 2.1 µM (active), the AC50 [7] is reported as 29.1 µM (active) and the AC50 [8] is reported as 1.9 µM (active). The AC50 [9] was 42.6 µM (active), the AC50 [10] was 23 µM (active) and the AC50 [11] was 29 µM (active). For the same compound, the AC50 [12] was 2.87 µM (active).
For Cc1n[nH]c(O)c1C(c1ccc(-c2cccc(Cl)c2)o1)c1c(C)n[nH]c1O, the AC50 [13] was > 380 µM (inactive), the IC50 [14] was 17.4 µM (active) and the EC50 (Protein RecA) was 66.2 µM (active). The IC50 (Genome polyprotein) was 56.5 µM (active), the IC50 [15] was 2.19 µM (active) and the IC50 [16] was 3.19 µM (active).
For O=C1NC[C@H](Cc2ccccc2)N(C[C@H]2CCCN2C[C@H](Cc2ccc(O)cc2)N2C[C@H](Cc3ccc(O)cc3)N(CC3CCCCCC3)C(=O)C2=O)C1=O, the EC50 (Mu-type opioid receptor) was 92.5 µM (inactive) and the EC50 [1] was 4.46 µM (active).
